According to PubChem BioAssay AID248 (DTP/NCI, 2004):
Toxic doses and inconclusive results are not listed. Rule as the data show it: active = T/C of 150% or more; inactive = T/C below 125%.

Tested on: L1210 leukemia ip in BDF1 mice, survival T/C
Experiment: NCI In Vivo Anticancer Drug Screen. Data for tumor model L1210 Leukemia (intraperitoneal) in B6D2F1 (BDF1) mice
Conditions: endpoint: mean survival time, higher = longer survival
Method in brief: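 Transplantable tumor model; survival measured in treated vs vehicle control mice. Value = treated/control.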

[1] = dose: 100.0 mg/kg/injection, schedule: Q04DX003 (ip), vehicle: saline
[2] = dose: 200.0 mg/kg/injection, schedule: Q04DX003 (ip), vehicle: saline
[3] = dose: 400.0 mg/kg/injection, schedule: Q04DX003 (ip), vehicle: saline
[4] = dose: 100.0 mg/kg/injection, schedule: Q01DX009 (ip), vehicle: saline with Tween-80
[5] = dose: 200.0 mg/kg/injection, schedule: Q01DX009 (ip), vehicle: saline with Tween-80
[6] = dose: 100.0 mg/kg/injection, schedule: Q04DX003 (ip), vehicle: Klucel (hydroxypropylcellulose) (HPC)
[7] = dose: 200.0 mg/kg/injection, schedule: Q04DX003 (ip), vehicle: Klucel (hydroxypropylcellulose) (HPC)
[8] = dose: 400.0 mg/kg/injection, schedule: Q04DX003 (ip), vehicle: Klucel (hydroxypropylcellulose) (HPC)
[9] = dose: 25.0 mg/kg/injection, schedule: Q01DX009 (ip), vehicle: Klucel (hydroxypropylcellulose) (HPC)
[10] = dose: 100.0 mg/kg/injection, schedule: Q04DX003 (ip), vehicle: saline with Tween-80
[11] = dose: 100.0 mg/kg/injection, schedule: Q01DX001 (ip), vehicle: saline
[12] = dose: 400.0 mg/kg/injection, schedule: Q01DX001 (ip), vehicle: saline
[13] = dose: 100.0 mg/kg/injection, schedule: Q01DX009 (ip), vehicle: saline
[14] = dose: 200.0 mg/kg/injection, schedule: Q04DX003 (ip), vehicle: saline with Tween-80
[15] = dose: 400.0 mg/kg/injection, schedule: Q04DX003 (ip), vehicle: saline with Tween-80

Measured: T/C

Cc1ccc(S(=O)(=O)[O][Pb]([CH3])([CH3])[CH3])cc1
inactive: dose: 3.12 mg/kg/injection, schedule: Q01DX009 (ip), vehicle: saline 104 % of control | dose: 3.12 mg/kg/injection, schedule: Q04DX002 (ip), vehicle: saline 108 % of control | dose: 6.25 mg/kg/injection, schedule: Q01DX009 (ip), vehicle: saline 86 % of control | dose: 6.25 mg/kg/injection, schedule: Q04DX002 (ip), vehicle: saline 108 % of control | dose: 12.5 mg/kg/injection, schedule: Q04DX002 (ip), vehicle: saline 101 % of control

NC(N)=N/N=C(\c1ccc(F)cc1)c1ccc(C(F)(F)F)cc1
inactive: dose: 9.5 mg/kg/injection, schedule: Q01DX001 (ip), vehicle: other 92 % of control | dose: 19.0 mg/kg/injection, schedule: Q01DX001 (ip), vehicle: other 97 % of control | dose: 38.0 mg/kg/injection, schedule: Q01DX001 (ip), vehicle: other 98 % of control

Nc1cccc2ncccc12
inactive: [1] 104 % of control | [2] 101 % of control | [3] 103 % of control

CCCCCCCCCCCCCC(S(=O)(=O)CC)S(=O)(=O)CC
inactive: dose: 100.0 mg/kg/injection, schedule: Q01DX001 (ip), vehicle: Klucel (hydroxypropylcellulose) (HPC) 89 % of control | dose: 200.0 mg/kg/injection, schedule: Q01DX001 (ip), vehicle: Klucel (hydroxypropylcellulose) (HPC) 87 % of control | dose: 400.0 mg/kg/injection, schedule: Q01DX001 (ip), vehicle: Klucel (hydroxypropylcellulose) (HPC) 87 % of control

Cc1ccc(S(=O)(=O)N/N=C/c2ccc(Cl)s2)cc1
inactive: [4] 95 % of control | [5] 97 % of control | dose: 400.0 mg/kg/injection, schedule: Q01DX009 (ip), vehicle: saline with Tween-80 92 % of control

[N-]=[N+]=CS(=O)(=O)c1ccccc1-c1ccccc1
inactive: [6] 104 % of control | [7] 103 % of control | [8] 95 % of control

O=C1c2sccc2-c2cccc3cccc1c23 (tested in a mixture with another compound)
inactive: [6] 96 % of control | [7] 102 % of control | [8] 106 % of control

c1ccc(CNCC2c3[nH]c4ccccc4c3CN2C2CCCCC2)cc1 (centres undefined)
inactive: dose: 75.0 mg/kg/injection, schedule: Q01DX001 (ip), vehicle: carboxymethylcellulose (CMC) 102 % of control | dose: 150.0 mg/kg/injection, schedule: Q01DX001 (ip), vehicle: carboxymethylcellulose (CMC) 90 % of control | dose: 300.0 mg/kg/injection, schedule: Q01DX001 (ip), vehicle: carboxymethylcellulose (CMC) 91 % of control

CC(=O)NCCN
inactive: [1] 92 % of control | [3] 108 % of control

CCOC1(OCC)C(Cl)=C(Cl)C(Cl)=C1Cl
inactive: dose: 25.0 mg/kg/injection, schedule: Q01DX005 (ip), vehicle: Klucel (hydroxypropylcellulose) (HPC) 108 % of control | [9] 110 % of control | dose: 25.0 mg/kg/injection, schedule: Q04DX002 (ip), vehicle: Klucel (hydroxypropylcellulose) (HPC) 104 % of control | dose: 50.0 mg/kg/injection, schedule: Q01DX005 (ip), vehicle: Klucel (hydroxypropylcellulose) (HPC) 102 % of control | dose: 50.0 mg/kg/injection, schedule: Q01DX009 (ip), vehicle: Klucel (hydroxypropylcellulose) (HPC) 96 % of control | dose: 50.0 mg/kg/injection, schedule: Q04DX002 (ip), vehicle: Klucel (hydroxypropylcellulose) (HPC) 104 % of control | dose: 100.0 mg/kg/injection, schedule: Q01DX005 (ip), vehicle: Klucel (hydroxypropylcellulose) (HPC) 97 % of control

CC1(C)Oc2ccccc2O1
inactive: [10] 93 % of control

CCC(=O)OC1(c2ccccc2)CCN(CCC(O)c2ccccc2)CC1 (centres undefined)
inactive: dose: 3.13 mg/kg/injection, schedule: Q01DX009 (ip), vehicle: Klucel (hydroxypropylcellulose) (HPC) 98 % of control | dose: 6.25 mg/kg/injection, schedule: Q01DX009 (ip), vehicle: Klucel (hydroxypropylcellulose) (HPC) 104 % of control | dose: 12.5 mg/kg/injection, schedule: Q01DX009 (ip), vehicle: Klucel (hydroxypropylcellulose) (HPC) 95 % of control | [9] 94 % of control

O=P1(c2ccccc2)C=C(Cl)CC1 (centres undefined)
inactive: dose: 75.0 mg/kg/injection, schedule: Q01DX001 (ip), vehicle: saline 96 % of control | dose: 150.0 mg/kg/injection, schedule: Q01DX001 (ip), vehicle: saline 107 % of control

Cc1cccc2c(N=Nc3ccccc3[N+](=O)[O-])c(O)[nH]c12
inactive: [11] 101 % of control | [12] 97 % of control

CC(=O)OC1CCC2(C)C(C1)C(OC(C)=O)CC1C3CCC(c4cccc(=O)o4)C3(C)CCC12 (centres undefined)
inactive: dose: 100.0 mg/kg/injection, schedule: Q01DX001 (sc), vehicle: steriod suspending solution 101 % of control | dose: 200.0 mg/kg/injection, schedule: Q01DX001 (sc), vehicle: steriod suspending solution 102 % of control | dose: 400.0 mg/kg/injection, schedule: Q01DX001 (sc), vehicle: steriod suspending solution 112 % of control

COc1ccccc1OCC(=O)N1CCCC1
inactive: dose: 100.0 mg/kg/injection, schedule: Q04DX002 (ip), vehicle: Klucel (hydroxypropylcellulose) (HPC) 98 % of control | dose: 200.0 mg/kg/injection, schedule: Q04DX002 (ip), vehicle: Klucel (hydroxypropylcellulose) (HPC) 98 % of control | dose: 400.0 mg/kg/injection, schedule: Q04DX002 (ip), vehicle: Klucel (hydroxypropylcellulose) (HPC) 117 % of control

CCS(=O)(=O)CC
inactive: [13] 101 % of control | [1] 100 % of control | dose: 200.0 mg/kg/injection, schedule: Q01DX009 (ip), vehicle: saline 106 % of control | [2] 107 % of control | dose: 400.0 mg/kg/injection, schedule: Q01DX009 (ip), vehicle: saline 97 % of control | [3] 95 % of control

O=C(Nc1ccccc1)C1C2C=CC(CC2)C1C(=O)Nc1ccccc1 (centres undefined)
inactive: [10] 98 % of control | [14] 107 % of control | [15] 98 % of control

CN(C)/N=C1\CCc2ccccc21
inactive: [11] 106 % of control | [13] 102 % of control | dose: 200.0 mg/kg/injection, schedule: Q01DX001 (ip), vehicle: saline 113 % of control | [12] 101 % of control

Nc1ccc(I)cc1
inactive: [10] 104 % of control | [14] 109 % of control

CCOC(=O)/C(C#N)=C\c1ccc(N(C)CCC#N)cc1
inactive: dose: 100.0 mg/kg/injection, schedule: Q01DX009 (ip), vehicle: Klucel (hydroxypropylcellulose) (HPC) 100 % of control | dose: 200.0 mg/kg/injection, schedule: Q01DX009 (ip), vehicle: Klucel (hydroxypropylcellulose) (HPC) 96 % of control | dose: 400.0 mg/kg/injection, schedule: Q01DX009 (ip), vehicle: Klucel (hydroxypropylcellulose) (HPC) 94 % of control

NC(=O)C(c1ccccc1)c1ccccc1
inactive: [10] 93 % of control | [14] 100 % of control | [15] 94 % of control

CCC#CC(O)(C(=O)OC)c1ccccc1 (centres undefined)
inactive: dose: 100.0 mg/kg/injection, schedule: Q01DX001 (ip), vehicle: carboxymethylcellulose (CMC) 100 % of control | dose: 200.0 mg/kg/injection, schedule: Q01DX001 (ip), vehicle: carboxymethylcellulose (CMC) 108 % of control | dose: 400.0 mg/kg/injection, schedule: Q01DX001 (ip), vehicle: carboxymethylcellulose (CMC) 96 % of control

CCOC(=O)CNS(=O)(=O)CCN1C(=O)c2ccccc2C1=O
inactive: dose: 50.0 mg/kg/injection, schedule: Q04DX003 (ip), vehicle: Klucel (hydroxypropylcellulose) (HPC) 98 % of control | [6] 100 % of control | [7] 98 % of control

O=C(O)C1=CC2(c3ccccc3)C(=O)C1(c1ccccc1)C1=C2c2cccc3cccc1c23 (centres undefined)
inactive: dose: 50.0 mg/kg/injection, schedule: Q01DX009 (ip), vehicle: saline with Tween-80 93 % of control | [4] 93 % of control | [5] 93 % of control

COc1cc(Cc2nccc3ccccc23)cc([N+](=O)[O-])c1OC
inactive: dose: 50.0 mg/kg/injection, schedule: Q04DX002 (ip), vehicle: saline with Tween-80 97 % of control | dose: 100.0 mg/kg/injection, schedule: Q04DX002 (ip), vehicle: saline with Tween-80 93 % of control | dose: 200.0 mg/kg/injection, schedule: Q04DX002 (ip), vehicle: saline with Tween-80 90 % of control | dose: 400.0 mg/kg/injection, schedule: Q04DX002 (ip), vehicle: saline with Tween-80 87 % of control
